Assay results published in ChEMBL document CHEMBL5465560, “Selectivity Literature for EUbOPEN Chemogenomic Library” (2024).

Assays:
[1] = biological target: Tyrosine-protein kinase receptor UFO (Homo sapiens) (UniProt P30530); experiment: Selectivity interaction (KinomeScan (DiscoverX)) EUB0000045b AXL
[2] = biological target: T1, Mitogen-activated protein kinase kinase kinase 15 (Homo sapiens) (UniProt Q6ZN16); experiment: Selectivity interaction (KinomeScan (DiscoverX)) EUB0000045b MAP3K15
T1 sequence (whole entry): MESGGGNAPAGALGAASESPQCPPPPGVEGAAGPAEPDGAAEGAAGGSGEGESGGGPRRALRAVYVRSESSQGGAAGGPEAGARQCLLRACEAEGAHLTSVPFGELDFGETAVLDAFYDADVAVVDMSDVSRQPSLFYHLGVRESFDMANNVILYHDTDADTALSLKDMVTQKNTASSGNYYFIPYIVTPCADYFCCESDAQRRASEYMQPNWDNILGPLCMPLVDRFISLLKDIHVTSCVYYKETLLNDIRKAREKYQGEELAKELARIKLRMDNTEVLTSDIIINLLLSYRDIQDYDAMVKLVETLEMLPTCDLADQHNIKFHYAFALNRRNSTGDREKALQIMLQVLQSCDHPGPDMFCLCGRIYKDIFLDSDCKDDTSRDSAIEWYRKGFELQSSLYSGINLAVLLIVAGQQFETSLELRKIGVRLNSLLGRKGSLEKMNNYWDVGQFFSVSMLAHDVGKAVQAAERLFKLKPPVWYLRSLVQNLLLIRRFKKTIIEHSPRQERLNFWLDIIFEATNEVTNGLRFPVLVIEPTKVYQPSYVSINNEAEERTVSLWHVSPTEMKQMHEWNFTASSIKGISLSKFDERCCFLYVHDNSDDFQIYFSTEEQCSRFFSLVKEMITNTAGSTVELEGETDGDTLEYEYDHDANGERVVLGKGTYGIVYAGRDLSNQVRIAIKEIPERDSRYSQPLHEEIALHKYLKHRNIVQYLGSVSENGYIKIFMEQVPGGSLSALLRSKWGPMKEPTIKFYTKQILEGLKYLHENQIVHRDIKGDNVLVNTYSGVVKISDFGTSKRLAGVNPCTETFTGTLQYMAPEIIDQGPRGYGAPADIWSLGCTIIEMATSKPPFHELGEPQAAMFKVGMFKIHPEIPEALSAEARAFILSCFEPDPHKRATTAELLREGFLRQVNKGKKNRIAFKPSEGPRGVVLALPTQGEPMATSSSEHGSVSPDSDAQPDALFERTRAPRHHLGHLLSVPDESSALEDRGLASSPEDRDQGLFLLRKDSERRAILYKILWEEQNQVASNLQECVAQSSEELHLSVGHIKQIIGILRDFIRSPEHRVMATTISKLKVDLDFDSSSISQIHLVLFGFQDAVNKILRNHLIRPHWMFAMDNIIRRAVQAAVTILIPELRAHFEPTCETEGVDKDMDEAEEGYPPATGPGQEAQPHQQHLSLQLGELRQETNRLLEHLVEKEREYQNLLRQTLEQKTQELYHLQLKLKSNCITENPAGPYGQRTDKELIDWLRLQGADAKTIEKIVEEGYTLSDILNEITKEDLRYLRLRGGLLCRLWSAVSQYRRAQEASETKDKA

[3] = biological target: Cyclin-Y/Cyclin-dependent kinase 16 (Homo sapiens) (UniProt Q00536+Q8ND76); experiment: Selectivity interaction (ProQinase) EUB0000171b CDK16; assay type: protein-complex assay
[4] = biological target: Cyclin-dependent kinase 9 (Homo sapiens, UniProt P50750); experiment: Selectivity interaction (ActivX KiNativ screen (ex vivo kinase selectivity in human PBMCs)) EUB0001619a CDK9; assay type: cell-based; details: PBMC, at 1 µM
[5] = biological target: T2, Serine/threonine-protein kinase Nek2 (Homo sapiens) (UniProt P51955); experiment: Selectivity interaction (KinomeScan (DiscoverX)) EUB0001619a NEK2; details: at 1 µM
T2 sequence (whole entry): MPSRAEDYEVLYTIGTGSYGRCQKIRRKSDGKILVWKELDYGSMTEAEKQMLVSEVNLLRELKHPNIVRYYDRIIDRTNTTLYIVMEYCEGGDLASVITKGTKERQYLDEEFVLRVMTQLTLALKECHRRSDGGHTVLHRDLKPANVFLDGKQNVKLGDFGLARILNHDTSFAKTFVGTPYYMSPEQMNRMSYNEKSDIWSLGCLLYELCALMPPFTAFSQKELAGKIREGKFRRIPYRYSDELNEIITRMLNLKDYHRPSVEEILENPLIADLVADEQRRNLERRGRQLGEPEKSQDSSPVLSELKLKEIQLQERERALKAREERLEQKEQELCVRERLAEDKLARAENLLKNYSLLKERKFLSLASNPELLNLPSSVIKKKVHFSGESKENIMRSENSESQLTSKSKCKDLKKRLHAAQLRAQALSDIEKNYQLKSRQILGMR

[6] = biological target: STE20-like serine/threonine-protein kinase (Homo sapiens, UniProt Q9H2G2); experiment: Selectivity interaction (Kinase panel (DSF assay)) EUB0001558a SLK
[7] = biological target: L-type calcium channel Cav1.2 (CACNA1C) (Homo sapiens, UniProt Q13936); experiment: Selectivity interaction (Panel of kinases, GPCRs, ion channels and transporters (enzymatic assay)) EUB0000266bCl CACNA1C
[8] = biological target: Cyclin-dependent kinase 3 (Homo sapiens) (UniProt Q00526); experiment: Selectivity interaction (KinomeScan (DiscoverX)) EUB0000655a CDK3; details: at 10 µM
[9] = biological target: Serine/threonine-protein kinase N1 (Homo sapiens, UniProt Q16512); experiment: Selectivity interaction (KinomeScan (DiscoverX)) EUB0000092b PKN1; details: at 10 µM

Chain of Tyrosine-protein kinase receptor UFO (Homo sapiens) (P30530 whole entry): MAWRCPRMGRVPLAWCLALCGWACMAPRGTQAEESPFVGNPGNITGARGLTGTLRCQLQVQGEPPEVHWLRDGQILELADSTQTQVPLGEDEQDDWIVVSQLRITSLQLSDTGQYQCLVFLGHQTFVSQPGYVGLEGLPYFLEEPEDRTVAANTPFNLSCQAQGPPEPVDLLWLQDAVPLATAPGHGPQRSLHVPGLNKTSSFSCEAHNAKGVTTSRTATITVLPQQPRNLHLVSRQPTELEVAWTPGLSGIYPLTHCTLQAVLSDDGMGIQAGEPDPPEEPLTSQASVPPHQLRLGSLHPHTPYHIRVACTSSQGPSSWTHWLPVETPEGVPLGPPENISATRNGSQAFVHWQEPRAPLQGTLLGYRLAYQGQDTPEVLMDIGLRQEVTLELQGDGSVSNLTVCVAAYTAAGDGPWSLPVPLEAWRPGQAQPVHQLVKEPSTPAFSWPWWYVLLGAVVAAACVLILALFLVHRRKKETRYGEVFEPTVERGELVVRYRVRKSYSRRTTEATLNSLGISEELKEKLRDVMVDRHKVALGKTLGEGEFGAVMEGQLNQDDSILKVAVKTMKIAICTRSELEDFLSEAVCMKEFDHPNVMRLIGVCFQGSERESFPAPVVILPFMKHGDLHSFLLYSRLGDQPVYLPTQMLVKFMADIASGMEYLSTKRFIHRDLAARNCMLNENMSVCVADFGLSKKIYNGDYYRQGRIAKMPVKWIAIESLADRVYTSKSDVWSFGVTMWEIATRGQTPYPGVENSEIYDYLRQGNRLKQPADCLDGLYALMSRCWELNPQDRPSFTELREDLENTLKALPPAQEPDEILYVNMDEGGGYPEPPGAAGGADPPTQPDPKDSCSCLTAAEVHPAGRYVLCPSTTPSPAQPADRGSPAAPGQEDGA
Chain of Cyclin-dependent kinase 3 (Homo sapiens) (Q00526 whole entry, looked up): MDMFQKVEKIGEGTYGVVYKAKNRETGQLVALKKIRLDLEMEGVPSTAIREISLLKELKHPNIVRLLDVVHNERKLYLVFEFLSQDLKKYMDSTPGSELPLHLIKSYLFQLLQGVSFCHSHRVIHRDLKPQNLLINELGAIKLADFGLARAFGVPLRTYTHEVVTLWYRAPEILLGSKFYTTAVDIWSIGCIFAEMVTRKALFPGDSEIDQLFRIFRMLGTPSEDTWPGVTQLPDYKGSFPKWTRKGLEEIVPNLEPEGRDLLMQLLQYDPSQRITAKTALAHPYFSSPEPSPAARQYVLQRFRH
Chain of L-type calcium channel Cav1.2 (CACNA1C) (Q13936 whole entry): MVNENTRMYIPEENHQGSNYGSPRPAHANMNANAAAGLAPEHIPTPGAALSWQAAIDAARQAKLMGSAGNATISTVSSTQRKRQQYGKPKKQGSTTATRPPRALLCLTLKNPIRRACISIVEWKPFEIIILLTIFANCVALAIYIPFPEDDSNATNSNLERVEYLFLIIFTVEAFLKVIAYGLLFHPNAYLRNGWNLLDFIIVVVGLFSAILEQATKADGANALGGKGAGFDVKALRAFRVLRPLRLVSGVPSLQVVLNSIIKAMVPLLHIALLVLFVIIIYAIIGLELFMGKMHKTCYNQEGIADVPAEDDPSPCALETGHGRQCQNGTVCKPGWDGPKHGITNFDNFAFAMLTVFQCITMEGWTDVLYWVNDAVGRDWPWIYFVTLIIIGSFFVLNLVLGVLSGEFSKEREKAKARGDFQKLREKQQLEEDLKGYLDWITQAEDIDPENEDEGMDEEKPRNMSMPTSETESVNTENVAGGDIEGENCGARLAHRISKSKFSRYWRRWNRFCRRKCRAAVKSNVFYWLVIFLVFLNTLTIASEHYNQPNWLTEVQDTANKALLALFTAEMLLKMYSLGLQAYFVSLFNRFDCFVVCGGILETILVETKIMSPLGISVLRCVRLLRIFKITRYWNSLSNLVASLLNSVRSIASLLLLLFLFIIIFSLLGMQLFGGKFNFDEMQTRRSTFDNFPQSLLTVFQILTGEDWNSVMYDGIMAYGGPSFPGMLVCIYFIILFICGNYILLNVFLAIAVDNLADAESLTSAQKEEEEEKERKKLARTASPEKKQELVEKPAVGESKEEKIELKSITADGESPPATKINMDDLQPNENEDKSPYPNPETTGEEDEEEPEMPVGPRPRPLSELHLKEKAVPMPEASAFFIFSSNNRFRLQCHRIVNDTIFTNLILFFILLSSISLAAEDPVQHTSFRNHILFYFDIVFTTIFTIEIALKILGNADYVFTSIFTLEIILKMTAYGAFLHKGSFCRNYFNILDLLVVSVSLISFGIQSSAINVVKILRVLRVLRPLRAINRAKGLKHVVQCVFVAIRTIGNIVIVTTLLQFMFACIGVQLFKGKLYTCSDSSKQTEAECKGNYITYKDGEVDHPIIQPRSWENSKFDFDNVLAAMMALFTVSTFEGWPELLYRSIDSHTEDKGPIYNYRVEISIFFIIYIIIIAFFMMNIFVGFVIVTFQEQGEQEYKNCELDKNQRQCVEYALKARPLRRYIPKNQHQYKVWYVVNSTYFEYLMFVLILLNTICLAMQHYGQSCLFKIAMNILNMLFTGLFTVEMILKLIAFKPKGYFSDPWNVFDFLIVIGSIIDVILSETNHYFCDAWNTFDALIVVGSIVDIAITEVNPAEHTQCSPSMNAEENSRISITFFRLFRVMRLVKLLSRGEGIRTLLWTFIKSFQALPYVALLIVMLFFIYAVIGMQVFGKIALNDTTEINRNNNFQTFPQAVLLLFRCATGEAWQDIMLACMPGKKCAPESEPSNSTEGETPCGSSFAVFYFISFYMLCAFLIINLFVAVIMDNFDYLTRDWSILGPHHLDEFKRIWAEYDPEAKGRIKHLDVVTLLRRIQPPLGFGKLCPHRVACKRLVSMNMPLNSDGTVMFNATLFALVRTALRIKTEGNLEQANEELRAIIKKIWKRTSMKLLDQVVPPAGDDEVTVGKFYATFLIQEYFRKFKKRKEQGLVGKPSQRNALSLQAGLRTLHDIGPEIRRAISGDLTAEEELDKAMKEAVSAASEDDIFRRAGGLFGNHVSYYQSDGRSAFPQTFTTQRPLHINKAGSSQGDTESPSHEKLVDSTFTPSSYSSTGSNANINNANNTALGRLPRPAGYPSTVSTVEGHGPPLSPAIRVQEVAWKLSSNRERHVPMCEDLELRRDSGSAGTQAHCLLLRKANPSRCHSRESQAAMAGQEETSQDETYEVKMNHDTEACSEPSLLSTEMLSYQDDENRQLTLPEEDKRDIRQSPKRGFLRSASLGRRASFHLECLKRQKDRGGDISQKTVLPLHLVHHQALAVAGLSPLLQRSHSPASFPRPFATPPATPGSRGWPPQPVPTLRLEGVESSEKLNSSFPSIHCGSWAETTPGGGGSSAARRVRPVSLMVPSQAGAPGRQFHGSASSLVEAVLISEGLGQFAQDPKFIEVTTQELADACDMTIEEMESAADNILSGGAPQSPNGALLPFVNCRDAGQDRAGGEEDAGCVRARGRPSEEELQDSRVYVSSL
Chain of Cyclin-dependent kinase 9 (P50750 whole entry): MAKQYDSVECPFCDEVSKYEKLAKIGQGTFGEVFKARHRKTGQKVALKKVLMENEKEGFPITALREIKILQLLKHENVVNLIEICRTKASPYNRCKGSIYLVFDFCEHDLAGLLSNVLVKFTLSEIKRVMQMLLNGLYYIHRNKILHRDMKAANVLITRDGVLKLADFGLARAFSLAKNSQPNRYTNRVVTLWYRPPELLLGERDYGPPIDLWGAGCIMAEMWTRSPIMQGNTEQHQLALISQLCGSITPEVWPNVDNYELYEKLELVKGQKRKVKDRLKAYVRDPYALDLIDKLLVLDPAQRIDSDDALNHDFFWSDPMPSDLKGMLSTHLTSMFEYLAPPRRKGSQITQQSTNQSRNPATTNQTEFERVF
Chain of STE20-like serine/threonine-protein kinase (Q9H2G2 whole entry, looked up): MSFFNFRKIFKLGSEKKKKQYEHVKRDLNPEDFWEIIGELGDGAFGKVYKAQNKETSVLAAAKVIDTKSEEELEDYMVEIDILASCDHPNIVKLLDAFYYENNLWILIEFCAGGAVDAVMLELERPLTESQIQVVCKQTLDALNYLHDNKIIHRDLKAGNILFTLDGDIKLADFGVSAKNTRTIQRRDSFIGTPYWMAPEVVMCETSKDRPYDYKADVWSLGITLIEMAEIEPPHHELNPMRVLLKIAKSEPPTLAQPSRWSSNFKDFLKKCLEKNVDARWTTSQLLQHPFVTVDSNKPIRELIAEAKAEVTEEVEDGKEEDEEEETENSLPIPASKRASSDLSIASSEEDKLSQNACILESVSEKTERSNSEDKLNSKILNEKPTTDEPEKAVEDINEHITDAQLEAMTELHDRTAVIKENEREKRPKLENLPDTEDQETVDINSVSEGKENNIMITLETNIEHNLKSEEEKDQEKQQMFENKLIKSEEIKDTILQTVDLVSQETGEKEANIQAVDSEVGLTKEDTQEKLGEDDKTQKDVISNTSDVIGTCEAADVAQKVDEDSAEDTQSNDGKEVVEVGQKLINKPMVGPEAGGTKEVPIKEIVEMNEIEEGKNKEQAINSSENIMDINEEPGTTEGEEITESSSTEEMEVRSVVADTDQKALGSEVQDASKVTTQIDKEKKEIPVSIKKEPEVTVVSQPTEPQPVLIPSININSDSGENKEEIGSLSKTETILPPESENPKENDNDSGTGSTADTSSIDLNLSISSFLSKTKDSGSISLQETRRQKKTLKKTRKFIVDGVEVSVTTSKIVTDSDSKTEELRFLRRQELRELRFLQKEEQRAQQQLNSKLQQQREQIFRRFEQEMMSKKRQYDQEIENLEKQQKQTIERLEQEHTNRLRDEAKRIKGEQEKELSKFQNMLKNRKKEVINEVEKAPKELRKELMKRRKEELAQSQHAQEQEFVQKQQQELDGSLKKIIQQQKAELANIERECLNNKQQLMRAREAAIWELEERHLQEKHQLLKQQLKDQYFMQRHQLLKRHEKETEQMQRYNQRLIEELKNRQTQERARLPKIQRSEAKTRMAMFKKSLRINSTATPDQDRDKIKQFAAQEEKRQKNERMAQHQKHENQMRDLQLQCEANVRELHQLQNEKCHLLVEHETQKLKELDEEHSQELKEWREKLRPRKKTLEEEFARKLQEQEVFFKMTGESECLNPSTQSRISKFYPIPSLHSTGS

SMILES: C=CC(=O)Nc1cc(-n2c(=O)ccc3cnc4ccc(-c5ccc(NS(C)(=O)=O)cc5)cc4c32)ccc1C
- % of control ([1]; at 1 µM): 100%
- % of control ([1]; at 10 µM): 100%
- % of control ([2]; at 1 µM): 70%
- % of control ([2]; at 10 µM): 100%

SMILES: C=CC(=O)Nc1cccc(C(=O)Nc2ccc(Nc3cc(-c4[nH]c(SC)nc4C)ccn3)cc2)c1
- % of control ([3]; at 1 µM): 88%
- % of control ([3]; at 5 µM): 87%

SMILES: N#Cc1cccc(-c2c[nH]c3ncnc(N4CCOCC4)c23)c1
- % of inhibition [4]: 22%
- % of control [5]: 100%

SMILES: CC(C)(O)[C@H](F)CN1Cc2cc(NC(=O)c3cnn4cccnc34)c(N3CCOCC3)cc2C1=O
- dTM [6]: 1.7 K

SMILES: CCn1c(-c2nc3cc(C(=O)N4CCCC(N)C4)ccc3n2C)cc2ccccc21 (configuration not stated)
- XC50 [7]: > 15.8 µM

SMILES: CN(C)CCOc1ccc(-c2nc(-c3ccncc3)c(-c3ccc4c(c3)CC/C4=N\O)[nH]2)cc1
- % of control [8]: 98%

SMILES: CCC(=O)N1CCN(c2ccc(-n3c(=O)ccc4cnc5ccc(-c6cnc7ccccc7c6)cc5c43)cc2C(F)(F)F)CC1
- % of control [9]: 92%
